Data set [1] in a line: Rodent pharmacokinetic study. The class given is in vivo, Male wistar rats. The following applies: plasma, Wistar/Male rat; for bioavailability: 3 mg/kg oral vs 1 mg/kg intravenous. The procedure:
Male wistar rats (225±25 grams) were used as experimental animals. Three to five animals were housed in each cage. Two days prior to dosing day, male wistar rats (225-250 grams) were anesthetized with isoflurane for surgical placement of jugular vein catheter. Animals were fasted over night before oral dosing (p.o) and food pellets were allowed 2 hours post dosing, whereas during intravenous dosing food and water were provided as ad libitum. Three rats were dosed with compounds of formula (I) (3 mg/kg) orally and intravenously (1 mg/kg).
At each time point blood was collected through jugular vein and immediately replenish with an equivalent volume of normal saline from freely moving rats. Collected blood was transferred into a labeled eppendr off containing 10 μL of heparin as anticoagulant. Typically blood samples were collected as following time points: Pre dose, 0.08 (only i.v.), 0.25, 0.5, 1, 2, 4, 6, 8, and 24 hours post dose (n=3). Blood was centrifuged at 4000 rpm for 10 minutes. Plasma was prepared and stored frozen at −20° C. until analysis. The concentrations of the compounds of formula (I) were quantified in plasma by qualified LC-MS/MS method using suitable extraction technique. The compounds of formula (I) were quantified in the calibration range around 2-2000 ng/mL in plasma. Study samples were analyzed using calibration samples in the batch and quality control samples spread across the batch.
Pharmacokinetic parameters Cmax, Tmax, AUC1, T1/2 and Bioavailability were calculated by non-compartmental model using standard non-coinpartmental model by using WinNonLin 5.0.1 or Phoenix WinNonlin 6.2 version Software package.

The subject of a further data set is Male Wistar rats. Put plainly: Object recognition task model. In kind it is in vivo. The following applies: dose mg/kg: Ex 1 0.1, Ex 2 0.03, Ex 4 0.03, Ex 13 1, Ex 23 0.01, Ex 37 10, Ex 43 0.3; for Exploration time mean ± S.E.M, Familiar object / Exploration time mean ± S.E.M, Novel object: choice trial T2, p.o.; for Inference: p.o. As for the experimental part:
The cognition enhancing properties of compounds of this invention were estimated by using this model.
Male Wistar rats (230-280 grams) were used as experimental animals. Four animals were housed in each cage. Animals were kept on 20% food deprivation before one day and given water ad libitum throughout the experiment and maintained on a 12 hours light/dark cycle. Also the rats were habituated to individual arenas for 1 hour in the absence of any objects.
One group of 12 rats received vehicle (1 mL/Kg) orally and another set of animals received compound of the formula (I) either orally or i.p., before one hour of the familiar (T1) and choice trial (T2).
The experiment was carried out in a 50×50×50 cm open field made up of acrylic. In the familiarization phase, (T1), the rats were placed individually in the open field for 3 minutes, in which two identical objects (plastic bottles, 12.5 cm height×5.5 cm diameter) covered in yellow masking tape alone (a1 and a2) were positioned in two adjacent corners, 10 cms from the walls. After 24 hours of the (T1) trial for long-term memory test, the same rats were placed in the same arena as they were placed in T1 trial. Choice phase (T2) rats were allowed to explore the open field for 3 minutes in presence of one familiar object (a3) and one novel object (b) (Amber color glass bottle, 12 cm high and 5 cm in diameter). Familiar objects presented similar textures, colors and sizes. During the T1 and T2 trial, explorations of each object (defined as sniffing, licking, chewing or having moving vibrissae whilst directing the nose towards the object at a distance of less than 1 cm) were recorded separately by stopwatch. Sitting on an object was not regarded as exploratory activity, however, it was rarely observed.
T1 is the total time spent exploring the familiar objects (a1+a2).
T2 is the total time spent exploring the familiar object and novel object (a3+b).
The object recognition test was performed as described by Behaviour Brain Research, (1988), 31, 47-59.

Data set [2] can be described thus: Rodent brain penetration study. The following applies: male, Wistar, rat, brain, po, 3 mg/kg, 3 mg/kg oral (gavage), read-out: Single dose Brain Penetration (Cb/Cp). In kind it is in vivo, Male Wistar rats. As for the experimental part: Male Wistar rats (225±25 grams) were used as experimental animals. Three animals were housed in each cage. Animals were given water and food ad libitum throughout the experiment and maintained on a 12 hours light/dark cycle. Brain penetration was determined in discrete manner in rats. One day prior to dosing day, male wistar rats (225-250 grams) were acclimatized. After acclimatization the rats were grouped according to their weight. In each group, 3 animals were kept in individual cage and allowed free access to food and water. At each time point (0.50, 1, and 2 hours) n=3 animals were used. The compounds of formula (I) were suitably preformulated and administered orally at (free base equivalent) 3 mg/kg. Blood samples were removed via, cardiac puncture by using isoflurane anesthesia. The animals were sacrificed to collect brain tissue. Plasma was separated and brain samples were homogenized and stored frozen at −20° C. until analysis. The concentrations of the compounds of formula (I) in plasma and brain were determined using LC-MS/MS method. The compounds of formula (I) were quantified in plasma and brain homogenate by qualified LC-MS/MS method using suitable extraction technique. The compounds of formula (I) were quantified in the calibration range of 1-500 ng/mL in plasma and brain homogenate. Study samples were analyzed using calibration samples in the batch and quality control samples spread across the batch. Extent of brain-plasma ratio was calculated (Cb/Cp).

In data set [3] the target is T1, recombinant human 5-HT4 receptor (Homo sapiens, UniProt Q13639).
T1 construct: expressed in transfected cells
T1 sequence (Q13639 whole entry): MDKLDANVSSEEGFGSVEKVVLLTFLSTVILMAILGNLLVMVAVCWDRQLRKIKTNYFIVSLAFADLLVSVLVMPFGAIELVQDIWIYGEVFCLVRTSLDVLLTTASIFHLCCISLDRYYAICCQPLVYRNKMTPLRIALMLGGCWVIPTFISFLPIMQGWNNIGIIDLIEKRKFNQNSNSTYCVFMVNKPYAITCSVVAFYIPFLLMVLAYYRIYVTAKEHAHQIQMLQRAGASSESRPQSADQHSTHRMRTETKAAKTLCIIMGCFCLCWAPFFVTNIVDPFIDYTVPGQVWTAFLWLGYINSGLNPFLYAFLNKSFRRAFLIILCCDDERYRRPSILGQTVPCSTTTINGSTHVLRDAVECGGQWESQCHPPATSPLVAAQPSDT
Put plainly: Determination of EC50 values for 5-HT4 receptor (CHO cells, pCRE-Luc reporter). The class given is cell-based. The note with it: for Emax: CHO; for EC50: CHO cells, human 5-HT4 receptor, luciferase reporter, 4 hours incubation. As for the experimental part:
Determination of EC50 Values for 5-HT4 Receptor
A stable CHO cell line expressing recombinant human 5-HT4 receptor and pCRE-Luc reporter system was used for cell-based assay. The assay offers a non-radioactive based approach to determine binding of a compound to GPCRs. In this specific assay, the level of intracellular cyclic AMP, which is modulated by activation, or inhibition of the receptor is measured. The recombinant cells harbor luciferase reporter gene under the control of cAMP response element.
The above cells were grown in 96 well clear bottom white plates in Hams F12 medium containing 10% fetal bovine serum (FBS). Prior to the addition of compounds or standard agonist, cells were serum starved overnight. Increasing concentrations of test compounds were added in OptiMEM medium to the cells. The incubation was continued at 37° C. in CO2 incubator for 4 hours. Medium was removed and cells were washed with phosphate buffered saline. The cells were lysed and luciferase activity was measured in a Luminometer. Luminescence units were plotted against the compound concentrations using Graphpad software.

Structures are written as SMILES.

In the case of `Nc1c(Cl)cc(C(=O)NCC2C3CN(CC4CCOCC4)CC23)c2ncccc12.O=C(O)C(O)C(O)C(=O)O` (stereo not drawn) [Example 2, 5-Amino-6-chloro-N-{[3-(tetrahydro-2H-pyran-4-ylmethyl)-3-azabicyclo[3.1.0]hex-6-yl]methyl}quinoline-8-carboxamide L(+)-tartarate], in data set [1] (1 mg/kg intravenous (bolus)), the AUC(0-t) turned out to be 284 ± 10 ng·h/mL, the Cmax came to 252 ± 30 ng/mL, the Tmax was 4.8 min and the half-life was 96 ± 6 min. In data set [1] (3 mg/kg oral (gavage)), the AUC(0-t) is 531 ± 51 ng·h/mL, the Cmax amounted to 140 ± 24 ng/mL, the Tmax is 25.2 ± 8.4 min and the half-life is 72 ± 6 min. For the same compound, in data set [1], the bioavailability turned out to be 62 ± 6%. Moreover, in the data set with Male Wistar rats, the “Exploration time mean ± S.E.M, Familiar object” value was 7.46 ± 1.30 s; the “Exploration time mean ± S.E.M, Novel object” value is 15.75 ± 1.65 s; the Inference entry was “Active”. In data set [2], the Kp came out at 1.31 ± 0.1. For the same compound, in data set [3], the Emax is 59% and the EC50 worked out at 0.5 nM.
With `Nc1c(Cl)cc(C(=O)NCC2(F)CCN(CC3(O)CCOCC3)CC2)c2ncccc12.O=C(O)C(O)C(O)C(=O)O` [Example 27, 5-Amino-6-chloro-N-{[4-fluoro-1-(4-hydroxytetrahydro-2H-pyran-4-ylmethyl)-4-piperidinyl]methyl}quinoline-8-carboxamide L(+)-tartarate], in data set [1] (1 mg/kg intravenous (bolus)), the AUC(0-t) worked out at 401 ± 15 ng·h/mL, the concentration peaked (Cmax) at 448 ± 41 ng/mL, the time to peak (Tmax) was 4.8 min and the half-life is 102 ± 24 min. Moreover, in data set [1] (3 mg/kg oral (gavage)), the AUC(0-t) amounted to 236 ± 72 ng·h/mL, the peak level (Cmax) was 173 ± 48 ng/mL and the Tmax is 15 min. In data set [1], this compound showed a bioavailability of 20 ± 6%. Also, the Kp in data set [2] worked out at 0.4 ± 0.02. Further, in data set [3], the Emax worked out at 63% and the EC50 came to 0.6 nM.
Regarding `CC(C)(O)CN1CCC(F)(CNC(=O)c2cc(Cl)c(N)c3cccnc23)CC1.O=C(O)C(O)C(O)C(=O)O` [Example 37, 5-Amino-6-chloro-N-{[4-fluoro-1-(2-hydroxy-2-methylpropyl)-4-piperidinyl]methyl} quinoline-8-carboxamide L(+)-tartarate], in data set [1] (1 mg/kg intravenous (bolus)), the AUC(0-t) worked out at 274 ± 25 ng·h/mL, the Cmax was 324 ± 52 ng/mL, the Tmax was found to be 4.8 min and the half-life is 114 ± 6 min. Also, in data set [1] (3 mg/kg oral (gavage)), the AUC(0-t) amounted to 200 ± 49 ng·h/mL, the Cmax was 137 ± 37 ng/mL, the Tmax was 15 min and the half-life was 78 ± 18 min. The bioavailability in data set [1] was found to be 24 ± 6%. Moreover, in the data set with Male Wistar rats, the “Exploration time mean ± S.E.M, Familiar object” value is 8.45 ± 1.65 s; the “Exploration time mean ± S.E.M, Novel object” value was determined as 17.81 ± 1.42 s; the Inference entry is on record as “Active”. Besides, the Kp in data set [2] came to 0.61 ± 0.07. Further, in data set [3], the Emax came out at 62% and the EC50 is 2.2 nM.
As to `CC(C)(O)CN1CCC(F)(CNC(=O)c2cc(F)c(N)c3cccnc23)CC1.O=C(O)C(O)C(O)C(=O)O` [Example 43, 5-Amino-6-fluoro-N-{[4-fluoro-1-(2-hydroxy-2-methylpropyl)-4-piperidinyl]methyl} quinoline-8-carboxamide L(+)-tartarate], in data set [1] (1 mg/kg intravenous (bolus)), the AUC(0-t) was 362 ± 83 ng·h/mL, the Cmax is 306 ± 47 ng/mL, the Tmax was 4.8 min and the half-life was 114 ± 54 min. Also, in data set [1] (3 mg/kg oral (gavage)), the AUC(0-t) was found to be 373 ± 39 ng·h/mL, the Cmax amounted to 231 ± 40 ng/mL, the Tmax is 19.8 ± 8.4 min and the half-life was 204 ± 132 min. Also, the bioavailability in data set [1] stood at 34 ± 4%. In the data set on Male Wistar rats, the “Exploration time mean ± S.E.M, Familiar object” value turned out to be 9.30 ± 0.93 s; the “Exploration time mean ± S.E.M, Novel object” value came to 16.09 ± 2.63 s; the Inference result is recorded as “Active”. In data set [2], the Kp was 0.93 ± 0.26. In data set [3], the Emax worked out at 43% and the EC50 is 2.9 nM.

By AUC(0-t) is commonly meant exposure summed from dosing to a finite time, without extrapolation to infinity. Read a high AUC(0-t) as more exposure. In general, Cmax refers to the peak of the concentration-time curve. A word on the Tmax: it is the time from dosing to the highest level. The half-life is how long it takes for the measured level to halve. A low value points to rapid decline. The term bioavailability denotes dose-corrected exposure relative to a reference, in per cent. A high value points to much systemic uptake. The Emax is the size of the effect at its maximum, as opposed to the concentration needed. The term EC50 denotes the midpoint of the concentration-response curve.

The record behind these values is patent publication US9790211B2, “5-amino-quinoline-8-carboxamide derivatives as 5-HT4 receptor agonists” (SUVEN LIFE SCIENCES LIMITED, priority 2013, dated 2017).
